Laboratory results from BindingDB's records for patent US20240343720 (Xizang Haisco Pharmaceutical, 2024).

Molecular target: AP2-associated protein kinase 1 (Homo sapiens, UniProt Q2M2I8)
Assay: In Vitro AAK1 Enzyme Activity Assay
Method: Compound stock solution (concentration: 10 mM, dissolved in DMSO) was diluted with DMSO to 0.2 mM and then diluted with DMSO in 5-fold gradient to obtain compound solutions with 10 concentrations. Subsequently, the compound solutions with different concentrations were diluted 50-fold in 1×kinase reaction buffer (containing 40 mM Tris, 20 mM MgCl2, 0.1% BSA and 0.5 mM DTT) for later use. AAK1 (Signalchem, Cat #A01-11G-10) was diluted with 1×kinase reaction buffer to 2-fold the final concentration (final concentrations: 30 nM and 28 nM). AAK1 was added to a 384-well white plate at 2 μL/well, and the compounds were then added at 1 μL/well. The plate was sealed with a plate-sealing film, centrifuged at 1000 rpm for 30 seconds and then placed at room temperature for 10 minutes. A mixed solution of ATP (Promega, Cat #V914B) and substrate Micro2 (GenScript, Cat #PE0890) was formulated at 4-fold the final concentration (for AAK1, the corresponding final concentrations of ATP: 15 μM and 5 μM, and the corresponding final concentration of Micro2: 0.1 mg/mL). To the reaction plate was added the mixed solution of ATP and the substrate at 1 μL/well.

Sequence of AP2-associated protein kinase 1 (Q2M2I8 whole entry): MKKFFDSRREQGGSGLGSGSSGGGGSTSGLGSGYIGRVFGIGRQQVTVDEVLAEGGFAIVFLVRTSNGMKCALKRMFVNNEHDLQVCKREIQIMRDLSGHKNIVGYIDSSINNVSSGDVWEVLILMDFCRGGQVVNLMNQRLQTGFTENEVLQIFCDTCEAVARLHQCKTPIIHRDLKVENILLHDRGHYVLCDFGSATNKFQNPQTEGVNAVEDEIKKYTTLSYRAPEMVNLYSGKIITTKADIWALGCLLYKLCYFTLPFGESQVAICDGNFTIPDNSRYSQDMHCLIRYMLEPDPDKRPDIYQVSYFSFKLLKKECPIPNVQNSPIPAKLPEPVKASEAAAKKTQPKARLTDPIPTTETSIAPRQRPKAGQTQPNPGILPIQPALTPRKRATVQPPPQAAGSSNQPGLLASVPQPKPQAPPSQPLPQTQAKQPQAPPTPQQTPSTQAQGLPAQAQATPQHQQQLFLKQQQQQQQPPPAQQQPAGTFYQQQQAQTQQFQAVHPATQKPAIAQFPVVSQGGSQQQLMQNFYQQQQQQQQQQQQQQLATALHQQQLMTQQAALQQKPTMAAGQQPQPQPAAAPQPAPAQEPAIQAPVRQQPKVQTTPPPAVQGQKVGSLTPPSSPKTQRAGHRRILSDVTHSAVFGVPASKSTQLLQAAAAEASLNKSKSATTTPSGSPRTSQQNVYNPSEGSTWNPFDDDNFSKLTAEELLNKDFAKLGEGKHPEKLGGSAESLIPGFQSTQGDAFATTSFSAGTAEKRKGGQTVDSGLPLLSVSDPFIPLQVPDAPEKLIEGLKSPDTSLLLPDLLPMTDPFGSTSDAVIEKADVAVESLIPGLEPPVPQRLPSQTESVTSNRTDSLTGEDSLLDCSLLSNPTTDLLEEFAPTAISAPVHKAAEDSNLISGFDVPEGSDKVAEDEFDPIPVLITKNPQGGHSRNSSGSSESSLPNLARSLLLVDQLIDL

Compound: C=C(C)C[C@](C)(N)COc1cnc(-c2ccnc(NC(=O)OC)c2)cc1C(F)F [US20240343720, Compound 11]
- IC50: 5.74 nM
